# Assay results reported in patent publication US20210244704A1, “Cabazitaxel in mCRPC Patients Previously Treated with Docetaxel and Who Failed a Prior androgen signaling targeted inhibitor Agent” (SANOFI MATURE IP, priority 2019, published 2021).
# System: mCRPC patients, safety population
# Test: Same clinical study: safety (adverse events, laboratory abnormalities, dose reductions)
# Assay type: in vivo, human
# Experimental: For patients in Arm A, cabazitaxel 25 mg/m^2 was administered intravenously over 1 hour every 3 weeks along with oral prednisone 10 mg given daily. Primary prophylactic granulocyte-colony stimulating factor (G-CSF) was required at each cycle for all patients in the cabazitaxel arm
# For patients in Arm B, abiraterone acetate was administered orally at 1000 mg once daily along with oral prednisone 5 mg given twice daily or enzalutamide was administered orally at 160 mg once daily continuously. Abiraterone acetate was administered to patients who had received enzalutamide prior to study entry. Enzalutamide was administered to patients who received prior abiraterone acetate.
# Cabazitaxel 25 mg/m^2, was administered intravenously over 1 hour every 3 weeks with oral prednisone 10 mg daily. Premedication included an antihistamine, glucocorticoid (dexamethasone 8 mg or equivalent), and histamine 2 receptor antagonist. Antiemetic prophylaxis was administered at physician's discretion. Primary prophylactic granulocyte-colony stimulating factor was required during each cycle of cabazitaxel. Patients received either abiraterone acetate (1000 mg orally once daily and oral prednisone 5 mg twice daily) or enzalutamide (160 mg orally once daily) continuously. A treatment cycle was 3 weeks in both arms. Abiraterone acetate was given to patients who previously received enzalutamide before study entry. Enzalutamide was given to patients who previously received abiraterone acetate.
# Up to a maximum of 2 dose reductions was allowed per patient when necessary due to toxicity and according to the table below:
# Efficacy analysis used all randomized patients. Stratified log-rank tests were used to analyze time-to-event data. The primary analysis compared radiographic progression-free survival between the two treatment groups using a stratified log-rank test. Survival curves were generated using Kaplan-Meier estimates. Hazard ratios and associated 95% confidence intervals [CI] were estimated using a stratified Cox proportional hazards model. Stratified Cochran-Mantel-Haenszel chi-square tests were used to analyze categorical data. Descriptive statistics were used to summarize patient characteristics. The safety population (randomized patients who received at least one dose of study treatment) was used for all safety analyses.
# [1] = human, in vivo, listed as cabazitaxel
smiles,measurement,setting,value
"CO[C@H]1C(=O)[C@]2(C)[C@@H](OC)C[C@H]3OC[C@@]3(OC(C)=O)[C@H]2[C@H](OC(=O)c2ccccc2)[C@]2(O)C[C@H](OC(=O)[C@H](O)[C@@H](NC(=O)OC(C)(C)C)c3ccccc3)C(C)=C1C2(C)C [Cabazitaxel, 4α-acetoxy-2α-benzoyloxy-5β,20-epoxy-1p-hydroxy-7β,10β-dimethoxy-9-oxo-11-taxen-13α-yl (2R,3S)-3-tert-butoxycarbonylamino-2-hydroxy-3-phenylpropionate]","Grade ≥3 neutropenia, measured at nadir by blood test",,55 patients
same,Anemia (laboratory abnormality),All grades,(99.2) %
same,Constipation,All grades,19 n
same,Hematuria,All grades,19 n
same,Hypokalemia (laboratory abnormality),All grades,(12.0) %
same,Leukopenia (laboratory abnormality),All grades,(74.4) %
same,Thrombocytopenia (laboratory abnormality),All grades,(40.8) %
same,Alopecia,Grade ≥3,0 n
same,Anemia (laboratory abnormality),Grade ≥3,(8.0) %
same,Arthralgia,Grade ≥3,0 n
same,Asthenia/fatigue,Grade ≥3,4.0%
same,Bladder and urethral symptoms,Grade ≥3,0 n
same,Cardiac disorders,Grade ≥3,0.8%
same,Constipation,Grade ≥3,0 n
same,Diarrhea,Grade ≥3,3.2%
same,Dysgeusia,Grade ≥3,0 n
same,Dyspnea,Grade ≥3,0 n
same,Febrile neutropenia,Grade ≥3,3.2%
same,Hypokalemia (laboratory abnormality),Grade ≥3,(0.8) %
same,Leukopenia (laboratory abnormality),Grade ≥3,(32.0) %
same,Musculoskeletal pain/discomfort,Grade ≥3,1.6%
same,Nausea/vomiting,Grade ≥3,0 n
same,Peripheral edema,Grade ≥3,0 n
same,Peripheral neuropathy,Grade ≥3,3.2%
same,Psychiatric disorders,Grade ≥3,0 n
same,Renal disorders,Grade ≥3,3.2%
same,Spinal cord and nerve root disorders,Grade ≥3,2.4%
same,Stomatitis,Grade ≥3,0 n
same,Thrombocytopenia (laboratory abnormality),Grade ≥3,(3.2) %
same,Weight decreased,Grade ≥3,0 n
same,Grade 5 adverse events related to bronchial aspiration,"human, in vivo",one
same,Grade 5 adverse events related to general health deterioration due to progressive disease,"human, in vivo",two
same,Grade 5 adverse events related to head injury,"human, in vivo",one
same,Grade 5 adverse events related to infections,"human, in vivo",two
same,Grade 5 adverse events related to spinal cord compression,"human, in vivo",one
same,Nail disorders,"human, in vivo",no nail disorders were reported
same,Any adverse event leading to permanent treatment discontinuation,[1],19.8%
same,Any adverse events,[1],98.4%
same,Any grade ≥3 adverse events,[1],56.3%
same,Any serious adverse events,[1],38.9%
same,Grade ≥3 adverse events occurring more frequently in patients ≥70 years of age,≥70 vs <70 years,"asthenia, diarrhea and febrile neutropenia"
